The conditions of series [1]: cited from earlier work.
For series [2] the following is noted: in vivo; cited from earlier work.
The conditions of series [3]: cited from earlier work. The source holds these as a separate data set.
The conditions of series [4]: cited from earlier work. This is another data set of the same source.
The subject of series [5] is 129.Mecp2^tm1.1Bird/Y mice. The series is described as follows: Survival (longevity) of treated Mecp2 null male mice. The conditions noted are these: 129.Mecp2^tm1.1Bird/Y males, fluvastatin 3 mg/kg s.c. Format: in vivo, mouse.
In another series the test system is cytochrome p450 enzymes. To be noted: cited from earlier work.
The subject of series [6] is 129.Mecp2^tm1.1Bird/Y mice. Nature of the series: Accelerating rotarod task, Mecp2 null males. Type of series: in vivo, mouse. (The rotarod test checks motor coordination on a turning rod.)
The next series concerns Mecp2^tm1.1Bird/Y mice. Nature of the series: Peripheral fat measures of treated Mecp2 null males. The conditions noted are these: Example 6/FIG. 9; 25 mg/kg Sub-Q 2x per week. Type of series: in vivo, mouse. The procedure: The preparation of the agents used in this Example was as follows: metformin hydrochloride, was dissolved in saline (Sigma). The day of injection, the metformin was diluted to 18 parts stock solution, 1 part DMSO, and 1 part ethanol, such that the desired dose for a 20 g mouse was given in 100 ul. […] The animals were treated starting at 5 weeks of age until the age of 10 weeks, or for a period of 5 weeks. Body weights were obtained weekly starting at 5 weeks of age prior to treatment, and ending at 10 weeks, at the end of study. Shown in the FIG. 9 are the weights after 3 weeks of treatment (at 8 weeks of age, panel A) and after 5 weeks of treatment (10 weeks of age, panel D).

Series [7] concerns 129.Mecp2^tm1.1Bird/Y mice. The series is described as follows: Open field locomotor activity, Mecp2 null males. Format: in vivo, mouse.
A further series relates to MECP2 mutant mice. Nature of the series: Trait amelioration / symptom rescue in Mecp2 mutant mice. Format: in vivo, mouse. The conditions noted are these: for rescue of motor traits and longevity: male mice, drugs sub-cutaneously.
Series [8] relates to 129.Mecp2^tm1.1Bird/Y mice. The series is described as follows: Serum/plasma cholesterol, Mecp2 null males. Type of series: in vivo, mouse. To be noted: by P70; fluvastatin p=0.001, lovastatin p=0.001.
Series [9] relates to 129.Mecp2^tm1.1Bird/Y mice. Nature of the series: Liver lipid measurement, Mecp2 null males. Type of series: in vivo, mouse. To be noted: P70; fluvastatin p=0.02; lovastatin p=0.386.
Setting [10] is: Example 6/FIG. 9, 25 mg/kg Sub-Q (3 mg/kg elsewhere in the source) 2x per week, vs vehicle.

Where a name gives a salt, the structure may show the parent alone. Read-outs that look alike come from different tables or passages of the source.

By half-life is commonly meant the time needed for the level to fall by half in the phase considered.

In the case of `CC(C)n1c(/C=C/C(O)CC(O)CC(=O)O)c(-c2ccc(F)cc2)c2ccccc21` (stereo not shown) [fluvastatin], the “LD50 (oral):” value in series [1] (mouse, in vivo, po) is listed as more than 2000 mg/kg. Further, the half-life result in [2] is “approximately 96 hours”. For the same molecule, the “Lipophilicity (LogD):” value in [3] was 1.00-1.25. Also, the solubility in water entry in series [4] is “soluble in water”. Also, the “survival beyond 120 days” value in series [5] was 57%. Moreover, the median longevity in series [5] (compared to 87 days, p<0.0001) was 122 days. Further, the “Metabolized by:” value in the series with cytochrome p450 enzymes is “Cyp2C9”.

Consider `CCC(C)(C)C(=O)O[C@H]1C[C@@H](C)C=C2C=C[C@H](C)[C@H](CC[C@@H]3C[C@@H](O)CC(=O)O3)[C@H]21` [simvastatin], for which the half-life in series [2] is 2 to 3 h.

With `O=S(=O)(c1ccccc1)N(CC(F)(F)F)c1ccc(C(O)(C(F)(F)F)C(F)(F)F)cc1` [T090317], the “motor performance, rotarod” value in series [6] (setting [10]) is “improved motor performance”. For the same molecule, the peripheral fat measures entry with Mecp2^tm1.1Bird/Y mice was “did not appear to improve”. For the same molecule, in series [7] (setting [10]), the “motor performance, open field activity” value is reported as “improved motor performance”.

With `CC(C)c1c(C(=O)Nc2ccccc2)c(-c2ccccc2)c(-c2ccc(F)cc2)n1CC[C@@H](O)C[C@@H](O)CC(=O)O` [atorvastatin], in the series on MECP2 mutant mice, the “rescue of motor traits and longevity” value is on record as “varying degrees of rescue”.

Turning to `CN(C)C(=N)N=C(N)N` [metformin, metformin hydrochloride], the “effect on Mecp2^tm1.1Bird/Y mice (FIG. 9 measures)” value in the series with MECP2 mutant mice (Example 6, 30 mg/kg IP 2x per week, 5 to 10 weeks of age, vs vehicle) was “little effect”.

Take `CC[C@H](C)C(=O)O[C@H]1C[C@@H](C)C=C2C=C[C@H](C)[C@H](CC[C@@H]3C[C@@H](O)CC(=O)O3)[C@H]21` [lovastatin]: the “LD50 (oral):” value in [1] ((mouse)) is recorded as more than 1000 mg/kg. Also, the Rotarod performance result in [6] (P56 treated null males vs vehicle, fluvastatin 3 mg/kg s.c. p=0.015, lovastatin […] s.c. p=0.009) is “improves”. The plasma cholesterol entry in [8] is given as “lowers”. Further, the “Lipophilicity (LogD):” value in series [3] is recorded as 1.75-1.50. Moreover, the “elevated lipid concentration in livers” value in [9] is on record as “ameliorates”. In series [7] (P70 treated null males vs vehicle, fluvastatin p=0.026, lovastatin p=0.011), the “Open field activity (beam breaks)” value is “increased”. Moreover, the “Metabolized by:” value in the series with cytochrome p450 enzymes is reported as “Cyp3A4”. Further, the “rescue of motor traits and longevity” value in the series on MECP2 mutant mice is given as “best rescue”.

On to `Cl.F/C(COc1ccc2c(c1)[nH]c1ccccc12)=C1/CN2CCC1CC2` [(E)-2-[2-fluoro-2-(quinuclidin-3-ylidene)ethoxy]-9H-carbazole monohydrochloride], for which, in the series with MECP2 mutant mice (Mecp2 mice, drugs targeting squalene synthase or squalene epoxidase), the improvement of symptoms result is given as “did not significantly improve symptoms”.

These data come from patent US20160193231A1, “RETT SYNDROME AND TREATMENTS THEREFORE” (RETT SYNDROME RESEARCH TRUST, priority 2013, published 2016).
